Data from US20240327364A1, “THERAPEUTIC TARGETING OF GPR68 TO INDUCE FERROPTOSIS” (University Of Maryland, Baltimore, priority 2023, published 2024).
Read-outs that look alike come from different tables or passages of the source.

Columns and labels:
[1] = target: T1, LTK (Homo sapiens, UniProt P29376); assay: KinomeScan; type: binding; settings: read-out: % Control
T1 construct: purchased DiscoveRx

[2] = target: T2, DYRK1A (Homo sapiens, UniProt Q13627); assay: KinomeScan; type: binding; settings: read-out: % Control
T2 construct: purchased DiscoveRx (Fremont, CA), KinomeScan service

[3] = target: T3, FLT3(R834Q) (Homo sapiens, UniProt P36888, R834Q); assay: KinomeScan; type: binding; settings: read-out: % Control
T3 construct: purchased DiscoveRx (Fremont, CA)

[4] = target: T4, SNRK (Homo sapiens, UniProt Q9NRH2); assay: KinomeScan; type: binding; settings: read-out: % Control
T4 construct: purchased DiscoveRx (Fremont, CA)

[5] = target: T5, IP1 (Homo sapiens, UniProt P43119); assay: GPCR Profiler; type: cell-based
T5 construct: host or cells: Chem-1 cells with promiscuous Gα15

[6] = target: T6, GCN2(Kin.Dom.2, S808G) (Homo sapiens, UniProt Q9P2K8, S808G); assay: KinomeScan; type: binding; settings: read-out: % Control
T6 construct: GCN2(Kin.Dom.2, S808G); purchased DiscoveRx (Fremont, CA)

[7] = target: T7, SRC (Homo sapiens, UniProt P12931); assay: KinomeScan; type: binding; settings: read-out: % Control
T7 construct: purchased DiscoveRx (Fremont, CA)

[8] = target: T8, MAP3K1 (Homo sapiens, UniProt Q13233); assay: KinomeScan; type: binding; settings: read-out: % Control
T8 construct: purchased DiscoveRx

[9] = target: T9, OPRD1 (Homo sapiens, UniProt P41143); assay: GPCR Profiler; type: cell-based
T9 construct: host or cells: Chem-1 cells expressing Gα15

[10] = target: T10, TNNI3K (Homo sapiens, UniProt Q59H18); assay: KinomeScan; type: binding; settings: read-out: % Control
T10 construct: purchased DiscoveRx (Fremont, CA)

[11] = target: T11, EPHA8 (Homo sapiens, UniProt P29322); assay: KinomeScan; type: binding; settings: read-out: % Control
T11 construct: purchased DiscoveRx (Fremont, CA)

[12] = target: T12, EP3 (Homo sapiens, UniProt P43115); assay: GPCR Profiler; type: cell-based
T12 construct: host or cells: Chem-1 cells expressing Gα15

[13] = target: T13, EPHB4 (Homo sapiens, UniProt P54760); assay: KinomeScan; type: binding; settings: read-out: % Control
T13 construct: purchased DiscoveRx (Fremont, CA)

[14] = target: T14, S1P2 (Homo sapiens, UniProt O95136); assay: GPCR Profiler; type: cell-based
T14 construct: host or cells: Chem-1 cells with Gα15

[15] = target: T15, JNK1 (Homo sapiens, UniProt P45983); assay: KinomeScan; type: binding; settings: read-out: % Control
T15 construct: purchased DiscoveRx

[16] = target: T16, IKK-beta (Homo sapiens, UniProt O14920); assay: KinomeScan; type: binding; settings: read-out: % Control
T16 construct: purchased DiscoveRx (Fremont, CA)

[17] = target: T17, GAK (Homo sapiens, UniProt O14976); assay: KinomeScan; type: binding; settings: read-out: % Control
T17 construct: purchased DiscoveRx (Fremont, CA)

[18] = target: T18, CAMK1G (Homo sapiens, UniProt Q96NX5); assay: KinomeScan; type: binding; settings: read-out: % Control
T18 construct: purchased DiscoveRx (KinomeScan service)

[19] = target: T19, PIPSK1C (Homo sapiens, UniProt O60331); assay: KinomeScan; type: binding; settings: read-out: % Control
T19 construct: purchased DiscoveRx (Fremont, CA)

[20] = target: T20, PIK3C2G (Homo sapiens, UniProt O75747); assay: KinomeScan; type: binding; settings: read-out: % Control
T20 construct: purchased DiscoveRx (Fremont, CA)

[21] = target: T21, MYLK4 (Homo sapiens, UniProt Q86YV6); assay: KinomeScan; type: binding; settings: read-out: % Control
T21 construct: purchased DiscoveRx

[22] = test system: HeLa; assay: Cell Titer-Glo viability, Cervical cancer; type: cell-based
Experimental: (§1) OGM2 kills wide variety of cancer cell types. Cell sensitivity can be classified in to Very Sensitive (LC50<2 μM), Sensitive (LC50=2 to 10 μM), Mildly Sensitive (LC50>10 μM), and Refractory (no killing at 10 μM). The listed established cell were incubated with OGM2 at 2 μM or 10 μM for 72 hours under standard cell culture conditions, and relative cell number was assessed using Cell Titer-Glo Luminescent Cell Viability Assay (Promega™) following the manufacturer's instructions. Luminescence was determined using a Cytation 5 reader and Gen5 software package (BioTek™).
(§2) Cancer cells, which are very sensitive to killing by OGM2 (LCs <2 μM), with reported mRNA expression of GPR68 and the related proton sensing receptor GPR4. LC50's (concentrations causing 50% lethality) were determined using CellTiter-Glo (Promega™, G7570). Cells were plated in 12-well plates (CELLTREAT Scientific Products, 229112) in 1 ml of DMEM with high glucose, GlutaMAX, HEPES, or RPMI 1640 with Penicillin-Streptomycin (ThermoFisher™, 10564029, 11875119 and 15140122) and 10% FBS. Cells were incubated overnight at 37° C. in 5% CO2. Then 1 mL of fresh media was added with DMSO, OGM, or positive control (Erastin; APExBIO Technology, LLC, B1524) and cells incubated for 3 days. On the third day, all media was removed, cells were rinsed with 1×PBS, PBS was removed, and 200 μL of 1× Passive Lysis Buffer (Promega™, E1941) was added to each well. […]. Subsequently, 20 μL of lysate was added to 100 μL CellTiter-Glo™ reagent on a LUMITRAC 200 plate (Greiner™ bio-one, 82050-726). Plates were briefly spun down and read on a GloMax-Multi Detection System (Promega™).
(§3) The cells listed in the tables above were incubated with OGM2 at 2 μM or 10 μM for 72 hours under standard cell culture conditions, and relative cell number was assessed using Cell Titer-Glo Luminescent Cell Viability Assay (Promega™) following the manufacturer's instructions. Luminescence was determined using a Cytation 5 reader and Gen5 software package (BioTek™). RNA expression of GPR68 and GPR4 in the corresponding cancer cell lines are listed, according to the publicly available The Human Protein Atlas version 22.0 and Ensembl version 103.38 (see proteinatlas.org). The consensus normalized expression value (“nTPM”=normalize transcript per million) was calculated as the maximum nTPM value for each gene in the two data sources.

[23] = test system: T-47D; assay: Cell Titer-Glo viability, Breast cancer; type: cell-based
Experimental: as §1, §2, §3

T5 sequence (P43119 whole entry): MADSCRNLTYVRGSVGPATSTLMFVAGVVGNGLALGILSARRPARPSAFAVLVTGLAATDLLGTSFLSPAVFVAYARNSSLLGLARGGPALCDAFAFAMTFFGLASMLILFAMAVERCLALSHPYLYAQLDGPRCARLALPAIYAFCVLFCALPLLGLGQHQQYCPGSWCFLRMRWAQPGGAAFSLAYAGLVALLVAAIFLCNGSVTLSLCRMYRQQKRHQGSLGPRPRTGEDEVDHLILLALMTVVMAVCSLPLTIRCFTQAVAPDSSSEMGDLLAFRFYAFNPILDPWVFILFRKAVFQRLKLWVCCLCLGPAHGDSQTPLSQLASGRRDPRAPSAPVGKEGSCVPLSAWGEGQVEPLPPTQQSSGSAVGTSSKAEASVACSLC
T14 sequence (O95136 whole entry, species assumed): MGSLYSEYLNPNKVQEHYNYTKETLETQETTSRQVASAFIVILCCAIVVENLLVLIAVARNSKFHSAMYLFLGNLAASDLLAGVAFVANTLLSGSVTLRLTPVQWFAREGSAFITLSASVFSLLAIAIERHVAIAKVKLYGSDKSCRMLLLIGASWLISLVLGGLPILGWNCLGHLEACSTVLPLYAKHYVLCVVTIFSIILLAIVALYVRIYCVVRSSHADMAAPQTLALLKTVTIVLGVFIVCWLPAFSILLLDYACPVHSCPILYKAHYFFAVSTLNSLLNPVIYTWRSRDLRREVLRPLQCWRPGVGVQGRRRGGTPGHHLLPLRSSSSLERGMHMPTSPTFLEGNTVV
T12 sequence (P43115 whole entry): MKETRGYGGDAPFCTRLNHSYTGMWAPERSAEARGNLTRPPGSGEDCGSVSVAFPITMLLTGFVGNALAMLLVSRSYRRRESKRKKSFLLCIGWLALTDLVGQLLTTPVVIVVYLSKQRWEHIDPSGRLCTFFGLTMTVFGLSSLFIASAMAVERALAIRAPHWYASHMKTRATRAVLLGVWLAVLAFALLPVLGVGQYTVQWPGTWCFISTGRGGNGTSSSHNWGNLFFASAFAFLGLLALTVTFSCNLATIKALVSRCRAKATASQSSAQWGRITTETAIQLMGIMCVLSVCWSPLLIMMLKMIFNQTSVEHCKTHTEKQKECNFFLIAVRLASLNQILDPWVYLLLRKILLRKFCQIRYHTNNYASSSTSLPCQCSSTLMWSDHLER
T9 sequence (P41143 whole entry, species assumed): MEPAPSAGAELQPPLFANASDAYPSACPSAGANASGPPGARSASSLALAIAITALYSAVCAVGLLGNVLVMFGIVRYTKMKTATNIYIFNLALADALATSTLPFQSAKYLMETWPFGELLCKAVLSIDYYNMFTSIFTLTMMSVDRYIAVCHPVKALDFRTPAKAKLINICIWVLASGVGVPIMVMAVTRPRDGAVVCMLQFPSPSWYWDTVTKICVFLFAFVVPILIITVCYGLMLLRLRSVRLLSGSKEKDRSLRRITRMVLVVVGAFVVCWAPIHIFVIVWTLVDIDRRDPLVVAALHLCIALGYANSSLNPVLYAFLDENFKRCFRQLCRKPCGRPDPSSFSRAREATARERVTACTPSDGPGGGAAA
T18 sequence (Q96NX5 whole entry): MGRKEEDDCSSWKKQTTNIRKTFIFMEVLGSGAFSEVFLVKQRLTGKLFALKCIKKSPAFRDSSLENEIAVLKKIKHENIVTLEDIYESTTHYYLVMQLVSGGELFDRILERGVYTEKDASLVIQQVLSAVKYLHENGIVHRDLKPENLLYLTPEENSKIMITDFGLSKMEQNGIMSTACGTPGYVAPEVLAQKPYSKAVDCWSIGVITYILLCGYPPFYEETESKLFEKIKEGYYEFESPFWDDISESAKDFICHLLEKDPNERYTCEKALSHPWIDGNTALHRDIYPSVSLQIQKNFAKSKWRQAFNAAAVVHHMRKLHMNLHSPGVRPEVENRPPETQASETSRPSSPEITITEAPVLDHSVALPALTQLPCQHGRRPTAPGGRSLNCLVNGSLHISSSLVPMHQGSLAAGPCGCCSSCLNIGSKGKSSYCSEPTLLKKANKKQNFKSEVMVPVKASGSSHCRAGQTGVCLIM
T4 sequence (Q9NRH2 whole entry): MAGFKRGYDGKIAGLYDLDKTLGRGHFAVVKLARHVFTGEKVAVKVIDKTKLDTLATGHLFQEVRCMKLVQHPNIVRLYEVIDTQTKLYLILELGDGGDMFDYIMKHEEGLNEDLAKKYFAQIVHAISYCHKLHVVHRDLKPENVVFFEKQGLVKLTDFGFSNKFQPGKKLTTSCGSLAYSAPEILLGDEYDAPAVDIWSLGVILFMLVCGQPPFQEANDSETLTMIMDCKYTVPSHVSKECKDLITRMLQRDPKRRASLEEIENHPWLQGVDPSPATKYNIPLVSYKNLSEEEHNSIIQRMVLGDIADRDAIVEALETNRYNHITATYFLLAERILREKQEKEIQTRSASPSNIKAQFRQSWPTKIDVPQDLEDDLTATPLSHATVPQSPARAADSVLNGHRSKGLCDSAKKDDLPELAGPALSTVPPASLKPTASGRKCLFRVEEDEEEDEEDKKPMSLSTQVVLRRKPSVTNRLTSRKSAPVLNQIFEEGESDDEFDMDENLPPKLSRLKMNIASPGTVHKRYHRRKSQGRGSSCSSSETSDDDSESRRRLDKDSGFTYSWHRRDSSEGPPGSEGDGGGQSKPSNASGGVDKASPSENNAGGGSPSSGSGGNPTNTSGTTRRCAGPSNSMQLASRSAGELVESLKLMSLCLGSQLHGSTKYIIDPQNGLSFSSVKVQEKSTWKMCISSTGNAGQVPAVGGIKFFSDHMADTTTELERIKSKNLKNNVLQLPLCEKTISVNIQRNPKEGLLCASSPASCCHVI
T13 sequence (P54760 16-987): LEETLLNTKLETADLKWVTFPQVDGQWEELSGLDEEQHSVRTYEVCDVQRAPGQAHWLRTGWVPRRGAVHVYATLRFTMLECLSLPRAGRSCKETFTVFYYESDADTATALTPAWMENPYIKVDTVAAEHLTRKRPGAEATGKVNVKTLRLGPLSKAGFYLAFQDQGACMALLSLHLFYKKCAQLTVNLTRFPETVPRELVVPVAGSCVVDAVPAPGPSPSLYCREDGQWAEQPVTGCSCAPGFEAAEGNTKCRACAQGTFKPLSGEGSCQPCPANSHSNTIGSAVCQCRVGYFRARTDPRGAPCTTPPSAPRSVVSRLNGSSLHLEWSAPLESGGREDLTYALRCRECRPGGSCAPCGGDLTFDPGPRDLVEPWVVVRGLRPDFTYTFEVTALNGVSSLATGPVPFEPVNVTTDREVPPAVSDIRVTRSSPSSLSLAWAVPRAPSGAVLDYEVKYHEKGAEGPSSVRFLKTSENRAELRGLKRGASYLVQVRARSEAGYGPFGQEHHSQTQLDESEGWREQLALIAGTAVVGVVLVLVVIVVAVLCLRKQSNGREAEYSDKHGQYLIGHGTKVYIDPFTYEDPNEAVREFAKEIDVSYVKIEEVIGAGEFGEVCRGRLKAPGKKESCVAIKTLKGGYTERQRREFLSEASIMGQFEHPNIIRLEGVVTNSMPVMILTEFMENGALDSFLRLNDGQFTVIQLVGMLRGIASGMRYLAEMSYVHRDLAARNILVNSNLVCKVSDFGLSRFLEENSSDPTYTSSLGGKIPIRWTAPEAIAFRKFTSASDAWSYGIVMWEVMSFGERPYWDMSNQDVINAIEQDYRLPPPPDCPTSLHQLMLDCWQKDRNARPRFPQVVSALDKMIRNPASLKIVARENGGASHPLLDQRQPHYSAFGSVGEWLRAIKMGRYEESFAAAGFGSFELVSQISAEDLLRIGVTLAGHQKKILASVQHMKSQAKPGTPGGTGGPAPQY
T19 sequence (O60331 whole entry): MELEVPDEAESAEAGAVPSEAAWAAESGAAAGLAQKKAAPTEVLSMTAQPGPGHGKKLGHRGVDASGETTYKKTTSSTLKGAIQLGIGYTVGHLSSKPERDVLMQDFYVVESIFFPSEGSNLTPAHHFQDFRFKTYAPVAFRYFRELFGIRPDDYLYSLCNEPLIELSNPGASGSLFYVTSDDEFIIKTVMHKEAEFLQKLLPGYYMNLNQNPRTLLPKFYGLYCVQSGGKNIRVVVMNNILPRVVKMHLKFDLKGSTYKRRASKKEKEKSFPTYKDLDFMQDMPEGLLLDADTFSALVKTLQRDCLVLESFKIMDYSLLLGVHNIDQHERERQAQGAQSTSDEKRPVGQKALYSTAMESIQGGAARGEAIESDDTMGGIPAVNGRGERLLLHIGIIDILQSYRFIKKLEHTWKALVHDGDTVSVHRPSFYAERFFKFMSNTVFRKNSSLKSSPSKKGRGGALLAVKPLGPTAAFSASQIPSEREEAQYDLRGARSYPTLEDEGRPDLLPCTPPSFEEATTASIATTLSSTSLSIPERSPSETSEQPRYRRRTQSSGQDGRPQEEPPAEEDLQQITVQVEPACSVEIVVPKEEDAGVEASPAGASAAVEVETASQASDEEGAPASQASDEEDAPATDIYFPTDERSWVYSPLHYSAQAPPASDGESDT
T7 sequence (P12931 whole entry): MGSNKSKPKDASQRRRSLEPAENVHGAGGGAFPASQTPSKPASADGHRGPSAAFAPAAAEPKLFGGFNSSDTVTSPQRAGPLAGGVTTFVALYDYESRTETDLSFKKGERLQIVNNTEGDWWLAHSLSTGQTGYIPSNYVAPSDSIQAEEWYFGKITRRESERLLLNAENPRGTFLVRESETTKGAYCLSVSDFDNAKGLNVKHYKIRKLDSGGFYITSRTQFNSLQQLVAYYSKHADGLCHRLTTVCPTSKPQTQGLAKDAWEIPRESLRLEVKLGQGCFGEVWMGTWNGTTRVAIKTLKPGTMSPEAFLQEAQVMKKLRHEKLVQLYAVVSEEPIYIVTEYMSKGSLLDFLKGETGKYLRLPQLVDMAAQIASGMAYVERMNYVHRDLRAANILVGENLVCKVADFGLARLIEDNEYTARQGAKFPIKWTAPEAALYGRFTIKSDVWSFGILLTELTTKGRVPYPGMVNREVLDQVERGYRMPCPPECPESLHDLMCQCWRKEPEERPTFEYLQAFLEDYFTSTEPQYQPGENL

Structure (SMILES): CCc1ccc2c(c1)C1(NN=C(c3cccc4ccccc34)S1)C(=O)N2 (stereo not shown) [OGM1, 5-ethyl-5′-naphthalen-1-ylspiro[1H-indole-3,2′-3H-1,3,4-thiadiazole]-2-one]
- remaining binding at 10 µM [1]: 100%
- remaining binding at 10 µM [2]: 39%
- remaining binding at 10 µM [3]: 100%
- remaining binding at 10 µM [4]: 100%
- Antagonism ([5]; 10 uM): −2
- Agonism ([5]; 12.5 uM): −0.5
- remaining binding at 10 µM [6]: 100%
- remaining binding at 10 µM [7]: 95%
- remaining binding at 10 µM [8]: 72%
- Antagonism ([9]; 10 uM): 7.4
- Agonism ([9]; 12.5 uM): −0.1
- remaining binding at 10 µM [10]: 100%
- remaining binding at 10 µM [11]: 100%
- Antagonism ([12]; 10 uM): 6.3
- Agonism ([12]; 12.5 uM): 0.4
- remaining binding at 10 µM [13]: 100%
- Antagonism ([14]; 10 uM): −3.3
- Agonism ([14]; 12.5 uM): 0.5
- remaining binding at 10 µM [15]: 63%
- remaining binding at 10 µM [16]: 92%
- remaining binding at 10 µM [17]: 64%
- remaining binding at 10 µM [18]: 80%
- remaining binding at 10 µM [19]: 97%
- remaining binding at 10 µM [20]: 50%
- remaining binding at 10 µM [21]: 98%

Structure (SMILES): CCc1ccc2c(c1)C1(NN=C(c3ccccc3)S1)C(=O)N2 (stereo not shown) [OGM2]
- Class [22]: Mildly
- % Survival 2 μM OGM ([22]; 72 hours): 91.5%
- % Survival 10 μM OGM ([22]; 72 hours): 68.0%
- CC50 ([22]; Homo sapiens, HeLa, 72 hours, read-out: LC50 (the source's name)): > 10 µM
- Class ([22]; Table 13): Low
- Class [23]: Mildly
- % Survival 2 μM OGM ([23]; 72 hours): 76.4%
- % Survival 10 μM OGM ([23]; 72 hours): 61.7%
- CC50 ([23]; Homo sapiens, T47D, 72 hours, read-out: LC50 (the source's name)): > 10 µM
